In patent US20250340575A1, “4-AMINOPYRROLO[2,1-F][1,2,4]TRIAZINES AND PREPARATION AND USES THEREOF” (Biosplice Therapeutics, Inc., priority 2024, published 2025):
pIC50: −log10 of the molar value.

Target: recombinant DYRK1A kinase (Homo sapiens, UniProt Q13627)
Test: DYRK1A kinase assay (Ser/Thr 18 peptide Z-lyte FRET)
Format: biochemical
Details: DYRK1A 0.25 μg/mL, ATP 15 μM, Ser/Thr peptide 18 4 μM, one hour at room temperature, 11-point dose-response from 10 μM

| SMILES | pIC50 |
| --- | --- |
| CNc1nc(N[C@H]2CCN(C3COC3)C[C@H]2F)nn2ccc(-c3ccc4nnn(CCCF)c4n3)c12 [Compound 337, N^2-((3R,4S)-3-Fluoro-1-(oxetan-3-yl)piperidin-4-yl)-5-(3-(3-fluoropropyl)-3H-[1,2,3]triazolo[4,5-b]pyridin-5-yl)-N^4-methylpyrrolo[2,1-f][1,2,4]triazine-2,4-diamine] | 8.36 |
| CCNc1nc(N[C@H]2CCN(C3COC3)C[C@H]2F)nn2ccc(-c3ccc4nnn(CC(F)F)c4n3)c12 [Compound 403, 5-(3-(2,2-Difluoroethyl)-3H-[1,2,3]triazolo[4,5-b]pyridin-5-yl)-N^4-ethyl-N^2-((3R,4S)-3-fluoro-1-(oxetan-3-yl)piperidin-4-yl)pyrrolo[2,1-f][1,2,4]triazine-2,4-diamine] | 8.38 |
| CC(C)Nc1nc(N[C@H]2CCN(C3COC3)C[C@H]2F)nn2ccc(-c3ccc4nnn(CC(F)F)c4n3)c12 [Compound 411, 5-(3-(2,2-Difluoroethyl)-3H-[1,2,3]triazolo[4,5-b]pyridin-5-yl)-N^2-((3R,4S)-3-fluoro-1-(oxetan-3-yl)piperidin-4-yl)-N^4-isopropylpyrrolo[2,1-f][1,2,4]triazine-2,4-diamine] | 8.01 |
| FC(F)Cn1nnc2ccc(-c3ccn4nc(N[C@H]5CCN(C6COC6)C[C@H]5F)nc(NC5CC5)c34)nc21 [Compound 419, N^4-Cyclopropyl-5-(3-(2,2-difluoroethyl)-3H-[1,2,3]triazolo[4,5-b]pyridin-5-yl)-N^2-((3R,4S)-3-fluoro-1-(oxetan-3-yl)piperidin-4-yl)pyrrolo[2,1-f][1,2,4]triazine-2,4-diamine] | 8.09 |

The next compounds have a higher pIC50 than those just listed; values first:

| pIC50 | SMILES |
| --- | --- |
| 8.47 | CNc1nc(N[C@H]2CCN(C(C)=O)C[C@H]2F)nn2ccc(-c3ccc4nnn(CCCF)c4n3)c12 [Compound 335, 1-((3R,4S)-3-Fluoro-4-((5-(3-(3-fluoropropyl)-3H-[1,2,3]triazolo[4,5-b]pyridin-5-yl)-4-(methylamino)pyrrolo[2,1-f][1,2,4]triazin-2-yl)amino)piperidin-1-yl)ethan-1-one] |
| 8.51 | CNc1nc(N[C@@H]2CCN(C)CC2(F)F)nn2ccc(-c3ccc4nnn(CCCF)c4n3)c12 [Compound 338, (R)—N^2-(3,3-Difluoro-1-methylpiperidin-4-yl)-5-(3-(3-fluoropropyl)-3H-[1,2,3]triazolo[4,5-b]pyridin-5-yl)-N^4-methylpyrrolo[2,1-f][1,2,4]triazine-2,4-diamine] |
| 8.46 | CNc1nc(N[C@@H]2CCN(C(C)=O)CC2(F)F)nn2ccc(-c3ccc4nnn(CCCF)c4n3)c12 [Compound 339, (R)-1-(3,3-Difluoro-4-((5-(3-(3-fluoropropyl)-3H-[1,2,3]triazolo[4,5-b]pyridin-5-yl)-4-(methylamino)pyrrolo[2,1-f][1,2,4]triazin-2-yl)amino)piperidin-1-yl)ethan-1-one] |
